# Laboratory results: PubChem BioAssay (NCI)
# Values joined by “and” are separate entries in the source; they are usually repeats but may differ in a detail not shown here. Equal entries are not always repeated.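 The compound was tested at five concentrations on cells cultured in 96-well plates, with a 48-hour exposure period. The concentration for 50% growth inhibition is given as GI50. The concentration for full growth arrest is given as TGI.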
# Tests used:
# Test in all cases: NCI anticancer screen, dose series, 48 h
# [1] = system: CAKI-1 renal
# [2] = system: CCRF-CEM leukemia
# [3] = system: IGROV1 ovarian
# [4] = system: MDA-MB-435
# [5] = system: OVCAR-3 ovarian
# [6] = system: OVCAR-4 ovarian
# [7] = system: SF-295 CNS
# [8] = system: SF-539 CNS
# [9] = system: SNB-19 CNS
# [10] = system: UO-31 renal
Structure (SMILES),TGI [1],TGI [2],TGI [3],TGI [4],TGI [5],TGI [6],TGI [7],TGI [8],TGI [9],TGI [10],GI50 [1],GI50 [2],GI50 [3],GI50 [4],GI50 [5],GI50 [6],GI50 [7],GI50 [8],GI50 [9],GI50 [10]
Cc1cccc(NC(=O)c2cccc([N+](=O)[O-])c2O)c1C,> 100 µM,> 31.6 µM,> 100 µM,> 100 µM,> 100 µM,> 100 µM,80.1 µM,96.9 µM,> 100 µM,74.7 µM,,,,,,,,,,
Cc1cc(N2CCOCC2)cc2[nH]c(-c3c(NC[C@@H](O)c4cccc(Cl)c4)cc[nH]c3=O)nc12,5.72 µM,> 100 µM,5.28 µM,7.9 µM,27.7 µM,40.4 µM,18.9 µM,4.85 µM,22.8 µM,2.98 µM,1.46 µM,4.01 µM,0.912 µM,1.07 µM,5.58 µM,4.21 µM,2.72 µM,2.02 µM,3.29 µM,0.275 µM
Cc1cnc(C(=O)NNc2nc3sc4c(c3c(=O)n2C)C(C)CCC4)cn1 (stereo unspecified),2.49 µM,,2.8 µM,7.26 µM,1.8 µM,2.09 µM,3.91 µM,2.38 µM,5.45 µM,1.86 µM,0.333 µM,0.245 µM,0.292 µM,0.751 µM,0.259 µM,0.163 µM,0.384 µM,0.396 µM,0.425 µM,0.322 µM
C=C1CC2(OC1=O)C(=O)Nc1ccccc12 (stereo unspecified),2.65 µM,7.15 µM,7.72 µM,14.9 µM,2.77 µM,3.37 µM,> 100 µM,3.81 µM,> 100 µM,5.79 µM,1.29 µM,2.11 µM,2.36 µM,3.57 µM,1.11 µM,1.5 µM,28.9 µM,1.88 µM,32.9 µM,2.09 µM
C#CCOc1cccc(Nc2ncnc3cc(NC(=O)CCl)ccc23)c1,15 µM,8.85 µM,11.9 µM,16.4 µM,4.35 µM,35.7 µM,15.2 µM,15 µM,18.4 µM,15.7 µM,3.51 µM,1.55 µM,2.78 µM,3.1 µM,1.84 µM,12.1 µM,3.52 µM,3.64 µM,4.98 µM,3.31 µM
COc1ccc2c(c1)C(=O)c1c-2n(CCCI)c(=O)c2cc([N+](=O)[O-])ccc12,48.6 µM and 6.86 µM,,50 µM and 72.3 µM,5.43 µM and 16.5 µM,19.4 µM and 20.1 µM,11.9 µM and 84.3 µM,50 µM and 66.8 µM,0.338 µM and 0.376 µM,36.9 µM and > 100 µM,13.1 µM and 10.4 µM,0.472 µM and 0.309 µM,0.0254 µM and 0.0153 µM,,0.449 µM and 1.49 µM,1.08 µM and 2.99 µM,1.03 µM and 3.72 µM,0.122 µM and 0.1 µM,0.0962 µM and 0.0577 µM,0.313 µM and 0.131 µM,0.36 µM and 0.0716 µM
COc1cc(Nc2ncc(F)c(Nc3ccc4c(n3)N(COP(=O)(O)O)C(=O)C(C)(C)O4)n2)cc(OC)c1OC,1.9 µM and > 10 µM,44.8 µM and > 10 µM,2.22 µM and 2.11 µM,22 µM and > 10 µM,33.6 µM and > 10 µM,6.31 µM and 6.78 µM,7.55 µM and 8.7 µM,1.94 µM and 1.81 µM,21.3 µM and > 10 µM,5.72 µM and 1.65 µM,0.456 µM and 0.645 µM,3.09 µM and 3.84 µM,0.457 µM and 0.342 µM,2.78 µM and 2.67 µM,2.66 µM and 2.71 µM,1.69 µM and 1.74 µM,1.39 µM and 1.17 µM,0.605 µM and 0.454 µM,2.68 µM and 2.84 µM,0.685 µM and 0.348 µM
CC(=O)OCc1cc2ccccc2nc1C(Br)(Br)Br,29.5 µM,29.3 µM,25.7 µM,27 µM,30.2 µM,30.5 µM,32.9 µM,38.2 µM,46.2 µM,29.5 µM,,,,,,,,,,
CN(C)CCCNC(=O)c1cc(NC(=O)c2cc(NC(=O)CCNS(=O)(=O)c3ccc4c(c3)C(=O)c3ccccc3C4=O)cn2C)cn1C,> 100 µM,> 100 µM,> 100 µM,> 100 µM,> 100 µM,,> 100 µM,> 100 µM,> 100 µM,> 100 µM,> 100 µM,> 100 µM,> 100 µM,> 100 µM,> 100 µM,,> 100 µM,> 100 µM,> 100 µM,> 100 µM
O=c1c(-c2ccccc2)coc2cc(OC/C(=N/O)c3ccccc3)ccc12,,> 100 µM,> 100 µM,> 100 µM,60.1 µM,47.2 µM,74.9 µM,53.3 µM,86.9 µM,76.5 µM,,4.22 µM,17.5 µM,20.5 µM,24.7 µM,14.9 µM,29.5 µM,25.4 µM,23.2 µM,18.6 µM
Cc1ccc(Cl)cc1NC(=O)c1sc2nc3c(cc2c1N)C(=O)CCC3,> 100 µM,,> 100 µM,5.04 µM,,> 100 µM,7.44 µM,> 100 µM,> 100 µM,> 100 µM,3.33 µM,,> 100 µM,1.1 µM,,> 100 µM,2.33 µM,4.65 µM,5.64 µM,> 100 µM
CN1C(=O)C2C(C1=O)C1(O)c3ccccc3C2(N)c2ccccc21 (stereo unspecified),> 100 µM,> 100 µM,> 100 µM,,> 100 µM,> 100 µM,> 100 µM,> 100 µM,> 100 µM,> 100 µM,,,,,,,,,,
O=c1c(O)c(-c2cc(O)c(O)c(O)c2)oc2cc(O)cc(O)c12,54 µM,> 100 µM,> 100 µM,34.8 µM,89.7 µM,30.2 µM,36.3 µM,> 100 µM,,> 100 µM,,,,,,,,,,
CC12CCC(Br)C(C)(C)C1CC=C1C(=O)OCC1O2 (stereo unspecified),26.8 µM,,17.7 µM,35.6 µM,31.3 µM,42.3 µM,37.6 µM,> 100 µM,> 50.4 µM,> 42.6 µM,,,,,,,,,,
